Test results: PubChem BioAssay (NCI)
Values joined by “and” are separate entries in the source; they are usually repeats but may differ in a detail not shown here. Equal values may be shown once.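 Protocol summary: plate cells (96-well), add compound at 5 concentrations, incubate 48 h, interpolate endpoints linearly. At the GI50, growth is halved. TGI: concentration producing complete growth inhibition.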

Experiments:
Assay in all cases: NCI tumour cell line growth inhibition, 48 h
SK-MEL-5 melanoma = test system: SK-MEL-5 melanoma
HCT-116 colon = test system: HCT-116 colon
BT-549 breast = test system: BT-549 breast
MALME-3M melanoma = test system: MALME-3M melanoma
SK-MEL-2 melanoma = test system: SK-MEL-2 melanoma
RXF 393 renal = test system: RXF 393 renal
HCT-15 colon = test system: HCT-15 colon
M14 melanoma = test system: M14 melanoma
U251 CNS = test system: U251 CNS
SN12C renal = test system: SN12C renal

Row | Compound | GI50 (SK-MEL-5 melanoma) | TGI (SK-MEL-5 melanoma) | GI50 (HCT-116 colon) | TGI (HCT-116 colon) | GI50 (BT-549 breast) | TGI (BT-549 breast) | GI50 (MALME-3M melanoma) | TGI (MALME-3M melanoma) | GI50 (SK-MEL-2 melanoma) [µM] | TGI (SK-MEL-2 melanoma) | GI50 (RXF 393 renal) | TGI (RXF 393 renal) | GI50 (HCT-15 colon) [µM] | TGI (HCT-15 colon) | GI50 (M14 melanoma) | TGI (M14 melanoma) | GI50 (U251 CNS) | TGI (U251 CNS) | GI50 (SN12C renal) | TGI (SN12C renal)
1 | CC(=O)NCc1cccc(C#Cc2cncnc2Nc2ccc(OCc3cccc(F)c3)c(Cl)c2)c1 | 9.44 µM | > 25 µM | 9.05 µM | > 25 µM | 13.5 µM | > 25 µM | 19.4 µM | > 25 µM | 11.8 | > 25 µM | 13 µM | > 25 µM | 8.31 | > 25 µM | 14.1 µM | > 25 µM | 11 µM | > 25 µM | 10.6 µM | > 25 µM
2 | COC(=O)c1cncc(/C=C/c2c(C)cc(O)cc2C)c1 | 6.78 µM | > 16.9 µM | 14.2 µM | > 25 µM | > 20.1 µM | > 25 µM | 11.5 µM | > 25 µM | 8.31 | 22.1 µM | 5.97 µM | 16.7 µM | 11.1 | > 25 µM | 8.69 µM | 24.6 µM | > 16.7 µM | > 25 µM | 11.2 µM | > 25 µM
3 | O=C(O)CCC(=O)c1ccc2sc3ccccc3c2c1 |  | > 100 µM |  | > 100 µM |  | > 100 µM |  | > 100 µM |  | > 100 µM |  | > 100 µM |  | > 100 µM |  | > 100 µM |  | > 100 µM |  | > 100 µM
4 | Cc1ccc(-c2nc([P+](c3ccccc3)(c3ccccc3)c3ccccc3)c(S(=O)(=O)c3ccc(C)cc3)o2)cc1 | 1.81 µM | 3.4 µM | 1.37 µM | 2.75 µM | 1.61 µM | 3.1 µM | 1.02 µM | 2.19 µM | 2.17 | 4.41 µM | 1.4 µM | 2.79 µM | 1.44 | 3.23 µM | 1.51 µM | 3.27 µM | 1.14 µM | 2.43 µM | 1.06 µM | 2.34 µM
5 | O=C(O)c1cccc(C(=O)O)c1S(=O)Cc1ccccc1 (stereo not given) |  | > 100 µM |  | > 100 µM |  | > 100 µM |  | > 100 µM |  | > 100 µM |  | > 100 µM |  | > 100 µM |  | > 100 µM |  | > 100 µM |  | > 100 µM
6 | O=C(Nc1cccc(-n2cc(-c3ccncc3)c(-c3cc(O)cc(Cl)c3)n2)c1)c1cc(C(F)(F)F)cc(C(F)(F)F)c1 | 2.61 µM | 8.67 µM | 3.23 µM | > 100 µM | 4.65 µM | 46.6 µM | 3.69 µM | 94.4 µM | 3.28 | 9.51 µM | 1.69 µM | 4.35 µM | 2.6 | 14.7 µM | 3.01 µM | > 100 µM | 3.23 µM | 24.4 µM | 4.77 µM | > 100 µM
7 | O=C(O)Cc1cccnc1 |  | > 100 µM |  | > 100 µM |  | > 100 µM |  | > 100 µM |  | > 100 µM |  | > 100 µM |  | > 100 µM |  | > 100 µM |  | > 100 µM |  | > 100 µM
8 | C[N+](C)(C)CC1CCCC1=O (stereo not given) |  | 12.5 µM |  | 3.74 µM |  | 2.32 µM |  | 1.61 µM |  | 12.2 µM |  | 5.3 µM |  | 7.44 µM |  | 2.61 µM |  | 29.3 µM |  | 5.56 µM
9 | COC(=O)CCCCC(=O)c1c(C)[nH]c(/C=C2\N=C(c3ccc[nH]3)C=C2OC)c1C | 0.357 µM | 1.37 µM | 0.109 µM |  | 0.418 µM | 1.85 µM | 0.746 µM | 2.16 µM | 0.456 | 1.83 µM | 0.524 µM | 2 µM | 0.359 | 1.4 µM | 0.289 µM | 0.952 µM | 0.868 µM | 2.15 µM | 1.1 µM | 2.47 µM
10 | Cc1cccc2c3c(sc12)C(c1ccc(Cl)cc1)C(C#N)=C(N)O3 (stereo not given) | 0.467 µM | 4.11 µM | 0.389 µM | 4.95 µM | 0.98 µM | 6.9 µM | 0.653 µM | 20 µM | 1.41 | 21 µM | 0.215 µM | 0.649 µM | 0.374 | 2.81 µM | 0.326 µM | 12.8 µM | 0.408 µM | 11 µM | 0.544 µM | 11.2 µM
11 | COc1cc(/C=C/C(=O)c2cccc(-n3cc(-c4ccc(Cl)cc4)[nH]c3=O)c2)cc(OC)c1OC | 8.7 µM | 23.7 µM | 1.39 µM | 2.68 µM | 12.3 µM | 79.9 µM | 18.1 µM | > 100 µM | 3.44 | 12.5 µM | 3.22 µM | 7.7 µM | 3.85 | 10.3 µM | 4.36 µM | 18.3 µM | 2.12 µM | 4.62 µM | 5.14 µM | 28.5 µM
12 | CC(C)(Br)C(=O)C(Br)Br | 5.55 µM | 25 µM and 9.92 µM | 5.33 µM | 9.91 µM and 9.61 µM |  | 9.13 µM | 4.92 µM | 3.67 µM and 9.42 µM | 5.75 | 28.8 µM and 10.8 µM | 5.31 µM | 10 µM and 9.81 µM | 4.88 | > 21.9 µM and 9.57 µM | 5.42 µM | 7.07 µM and 9.69 µM | 9.65 µM | > 44.7 µM and 33.3 µM | 6.13 µM | > 43.1 µM and 11.2 µM
13 | O=C(CC1(O)C(=O)N(Cc2ccccc2)c2ccccc21)c1ccc(C(=O)NCC2CCC3(CC2)OOC2(CCCCC2)OO3)cc1 (stereo not given) | 1.66 µM | 3.14 µM | 2.29 µM | 6.13 µM | 1.88 µM | 4.03 µM | 0.566 µM | 2 µM | 2.28 | 5.24 µM | 0.705 µM | 1.98 µM | 1.76 | 4.76 µM | 2.48 µM | 7.26 µM | 0.774 µM | 2.17 µM | 1.66 µM | 3.76 µM
14 | O=C(/C=C/c1cccc(O)c1)c1cccc(-n2cc(-c3ccccc3)[nH]c2=O)c1 | 2.41 µM | 6.59 µM | 2.22 µM |  | 3.57 µM | 9.79 µM | 3.53 µM | 10.9 µM | 6.23 | 24.7 µM | 1.83 µM | 3.51 µM | 2.94 | 10.3 µM | 2.89 µM |  | 1.56 µM | 3.05 µM | 3.01 µM | 11.3 µM
15 | COc1ccc(NC(=O)C2CCC(CNS(=O)(=O)c3ccccc3)CC2)cc1OC (stereo not given) | > 100 µM | > 100 µM | > 100 µM | > 100 µM | > 100 µM | > 100 µM | 40.3 µM | > 100 µM | > 100 | > 100 µM | > 100 µM | > 100 µM | > 100 | > 100 µM | > 100 µM | > 100 µM | 54 µM | > 100 µM | 2.69 µM | 69.5 µM
16 | O=C1OC(C(O)CO)C(O)=C1O (stereo not given) | 1560 µM and > 4190 µM | 2910 µM and > 5600 µM | 250 µM and 641 µM | 534 µM and 2110 µM | 2190 µM and 2510 µM | 4330 µM and > 5710 µM | 1540 µM and 1760 µM | 2990 µM and 3550 µM | 2190 | 4940 µM and > 3780 µM | 1650 µM and 1750 µM | 3080 µM and 3400 µM | 1860 | 3450 µM and 3870 µM | 1890 µM and 2290 µM | 3570 µM and 4760 µM | 1910 µM and 1840 µM | 3400 µM and 3550 µM | 1460 µM and 1540 µM | 2810 µM and 3070 µM
17 | CCC1(O)C(=O)OCc2c1cc1n(c2=O)Cc2cc3c(NC(=O)CN)cccc3nc2-1 (stereo not given) | 0.8 µM | 4.78 µM | 1.01 µM | > 62.5 µM | 0.477 µM | > 26.2 µM | 6.94 µM | 41.1 µM | 9.74 | 41.1 µM | 0.515 µM | 3.91 µM | 5.22 | > 100 µM | 0.532 µM | 8.73 µM | 0.16 µM | 12.1 µM | 0.102 µM | 10.1 µM
18 | COC(=O)[C@H]1CCCN1C(=O)[C@H]1CCCN1C(=O)[C@@H](Cc1c[nH]c2ccccc12)NC(=S)Nc1cc(C(F)(F)F)cc(C(F)(F)F)c1 | 1.7 µM | 3.23 µM | 1.95 µM | 3.77 µM | 2.47 µM | 5.59 µM | 1.75 µM | 3.31 µM | 1.95 | 3.55 µM | 1.34 µM | 2.72 µM | 1.66 | 3.13 µM | 2.04 µM | 4.19 µM | 1.54 µM | 2.9 µM | 1.69 µM | 3.19 µM
19 | C#CCNC(=O)[C@H](CC)[C@H]1CC[C@H](C)[C@H]([C@@H](C)[C@H](O)[C@H](C)C(=O)[C@H](CC)C2O[C@]3(C=CC(=O)[C@]4(CC[C@@](C)([C@H]5CC[C@](O)(CC)[C@H](C)O5)O4)O3)[C@H](C)C[C@@H]2C)O1 (stereo not given in full) | 1.69 µM | 3.11 µM | 2.43 µM | 7.66 µM | 1.83 µM | 3.93 µM | 2.05 µM | 6.15 µM | 2.44 | 7.31 µM | 2.48 µM | 7.63 µM | 2.61 | 7.81 µM | 1.86 µM | 4.57 µM | 1.88 µM | 3.93 µM | 2.29 µM | 6.58 µM
20 | COC1C(O)C(CO)OC(OC2C(O)COC(OC3C(C)OC(OC4C(O[C@H]5CC[C@@]6(C)C(CC=C7[C@H]6CCC68C(=O)O[C@@](C)(CCCC(C)C)[C@H]6[C@@H](OC(C)=O)C[C@@]78C)C5(C)C)OCC(OS(=O)(=O)O)C4O)C(OC4OCC(O)C(O)C4O)C3O)C2O)C1O (stereo not given in full) | 0.473 µM | 1.13 µM | 0.0886 µM | 0.229 µM | 0.226 µM | 0.523 µM | 0.242 µM | 0.671 µM | 0.233 | 2.47 µM | 0.184 µM | 0.66 µM | 0.177 | 0.454 µM | 0.258 µM | 0.894 µM | 0.12 µM | 0.272 µM | 0.11 µM | 0.3 µM
21 | COC1=C(OC)C(=O)C(SC/C=C(\C)CCCC(C)CCCC(C)CCCC(C)C)=CC1=O (stereo not given) | 0.341 µM | 1.73 µM | 0.574 µM | > 39.7 µM | 0.993 µM | 10.2 µM | 0.513 µM |  | 0.802 | 4.24 µM | 1.36 µM | > 91.6 µM | 1.38 | > 100 µM | 0.743 µM | > 100 µM | 0.479 µM | > 100 µM | 0.741 µM | > 100 µM
22 | Nc1nc(Nc2ccccc2SSc2ccccc2Nc2nc(N)nc(C(Cl)(Cl)Cl)n2)nc(C(Cl)(Cl)Cl)n1 | 5.97 µM | 32.2 µM | 4.82 µM | 16.9 µM | 3.34 µM | 35.7 µM | 5.9 µM | 18.6 µM | 13.2 | 33.9 µM | 3.47 µM | 10.3 µM | 3.89 | 15 µM | 9.13 µM | 22.9 µM | 2.29 µM | 5.85 µM | 2.46 µM | 7.26 µM
